In PMC11834572, “MoxR effects as an ATPase on anti-stress and pathogenicity of Riemerella anatipestifer” (Veterinary Research, 2025):

Molecular target: T1, His6-MoxR (Riemerella anatipestifer, UniProt E4TDR4)
T1 construct: gene RA0C_2065
Conditions: 37 °C, 1 h; ATP or His6-MoxR concentration varied

T1 sequence (E4TDR4 entry or part of it): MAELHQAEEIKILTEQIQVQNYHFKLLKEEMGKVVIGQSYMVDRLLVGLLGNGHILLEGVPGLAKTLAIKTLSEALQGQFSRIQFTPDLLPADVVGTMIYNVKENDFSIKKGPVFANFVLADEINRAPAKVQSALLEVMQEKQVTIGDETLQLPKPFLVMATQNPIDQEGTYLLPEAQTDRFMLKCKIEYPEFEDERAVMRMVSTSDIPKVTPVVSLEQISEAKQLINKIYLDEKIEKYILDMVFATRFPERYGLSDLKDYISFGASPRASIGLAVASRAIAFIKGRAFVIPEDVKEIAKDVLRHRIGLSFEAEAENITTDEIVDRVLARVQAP

Compound: Nc1ncnc2c1ncn2[C@@H]1O[C@H](COP(=O)(O)OP(=O)(O)OP(=O)(O)O)[C@@H](O)[C@H]1O [ATP]
- phosphate release, molybdenum blue, absorbance at 660 nm: concentration of phosphate groups in each reaction system increased with higher amounts of His6-MoxR and ATP
